Test results: ChEMBL document CHEMBL3886390, “Triazolyl PDE10 inhibitors” (2015)

Target: cAMP and cAMP-inhibited cGMP 3',5'-cyclic phosphodiesterase 10A (Homo sapiens, UniProt Q9Y233)
Experiment: Fluorescence Polarization Assay: In a typical experiment the PDE10 inhibitory activity of the compounds of the present invention was determined in accordance with the following experimental method. PDE10A2 was amplified from human fetal brain cDNA (Clontech, Mountain View, Calif.) using a forward primer corresponding to nucleotides 56-77 of human PDE10A2 (Accession No. AF127480, Genbank Identifier 4894716), containing a Kozak consensus sequence, and a reverse primer corresponding to nucleotides 2406-2413 of human PDE10A2 (Accession No. AF127480, Genbank Identifier 4894716). Amplification with Easy-A polymerase (Stratagene, La Jolla, Calif.) was 95° C. for 2 minutes followed by thirty three cycles of 95° C. for 40 seconds, 55° C. for 30 seconds, and 72° C. for 2 minutes 48 seconds. Final extension was 72° C. for 7 minutes. The PCR product was TA cloned into pcDNA3.2-TOPO (Invitrogen, Carlsbad, Calif.) according to standard protocol. AD293 cells with 70-80% confluency were transiently transfected with human PDE10A2.

Sequence of cAMP and cAMP-inhibited cGMP 3',5'-cyclic phosphodiesterase 10A (Q9Y233 whole entry): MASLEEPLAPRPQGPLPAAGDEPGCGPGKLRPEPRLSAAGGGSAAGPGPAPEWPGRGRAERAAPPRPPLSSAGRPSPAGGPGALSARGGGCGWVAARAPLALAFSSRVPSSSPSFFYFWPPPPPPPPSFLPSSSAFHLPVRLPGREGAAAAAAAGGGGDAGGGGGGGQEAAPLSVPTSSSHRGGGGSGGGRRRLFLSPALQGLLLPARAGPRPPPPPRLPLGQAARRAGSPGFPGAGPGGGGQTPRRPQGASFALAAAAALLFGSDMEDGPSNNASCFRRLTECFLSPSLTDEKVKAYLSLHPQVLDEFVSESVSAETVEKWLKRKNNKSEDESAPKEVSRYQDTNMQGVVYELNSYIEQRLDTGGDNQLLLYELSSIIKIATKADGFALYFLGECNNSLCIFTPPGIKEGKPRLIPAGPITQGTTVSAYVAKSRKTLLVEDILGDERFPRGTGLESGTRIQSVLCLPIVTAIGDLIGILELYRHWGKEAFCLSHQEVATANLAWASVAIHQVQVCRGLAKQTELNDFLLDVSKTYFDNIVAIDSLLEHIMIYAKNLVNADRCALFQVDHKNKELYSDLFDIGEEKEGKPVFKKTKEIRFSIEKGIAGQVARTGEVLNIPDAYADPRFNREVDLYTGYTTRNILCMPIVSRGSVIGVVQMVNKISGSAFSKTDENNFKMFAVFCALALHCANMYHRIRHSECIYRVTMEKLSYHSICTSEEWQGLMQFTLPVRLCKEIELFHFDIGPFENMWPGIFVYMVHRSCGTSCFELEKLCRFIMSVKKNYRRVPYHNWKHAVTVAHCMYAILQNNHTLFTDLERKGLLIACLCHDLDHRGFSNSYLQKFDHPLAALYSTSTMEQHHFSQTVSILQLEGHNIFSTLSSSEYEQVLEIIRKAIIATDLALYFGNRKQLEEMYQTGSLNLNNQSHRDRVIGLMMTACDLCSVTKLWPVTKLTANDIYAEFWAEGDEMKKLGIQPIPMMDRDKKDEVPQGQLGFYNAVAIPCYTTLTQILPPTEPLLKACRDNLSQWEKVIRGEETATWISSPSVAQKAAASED

| Ki | SMILES |
| --- | --- |
| 14.2 nM | Cc1nc(C2CC2c2nc3ccc(F)cc3[nH]2)cc(-n2nc(C)nc2C)n1 (configuration not stated) |
| 3.3 nM | COc1ccc(COc2cc(-n3nc(C)nc3Cc3ccc(OC)c(OC)c3)nc(C)n2)nc1 |
